Structures can show the parent of a compound that is named as a salt. Where two headings read alike, the source gives them in different places.
Assays:
Assay in all cases: AK assay 384-well format, Prestwick library screening
[1] = tested on: E. faecium; type: cell-based, Enterococcus faecium; conditions: Enterococcus faecium, 3 h, 50 μM final drug concentration
[2] = tested on: S. aureus strain USA300-0114; type: cell-based, Staphylococcus aureus; conditions: Staphylococcus aureus, USA300, 3 h, 50 μM final drug concentration
[3] = tested on: K. pneumoniae; type: cell-based, Klebsiella pneumoniae; conditions: Klebsiella pneumoniae, 3 h, 50 μM final drug concentration
[4] = tested on: A. baumannii strain 98-37-09; type: cell-based, Acinetobacter baumannii; conditions: Acinetobacter baumannii, 983709, 3 h, 50 μM final drug concentration
[5] = tested on: P. aeruginosa; type: cell-based, Pseudomonas aeruginosa; conditions: Pseudomonas aeruginosa, 3 h, 50 μM final drug concentration
[6] = tested on: E. cloacae; type: cell-based, Enterobacter cloacae; conditions: Enterobacter cloacae, 3 h, 50 μM final drug concentration
[7] = tested on: E. coli; type: cell-based, Escherichia coli; conditions: Escherichia coli, 3 h, 50 μM final drug concentration
[8] = planktonic E. faecium, cutoff for positive-scoring molecules 3-fold increase, read-out: AK-based Prestwick Library Screening Results, E. faecium (increase in extracellular AK activity)
[9] = planktonic S. aureus, cutoff for positive-scoring molecules 3-fold increase, read-out: AK-based Prestwick Library Screening Results, S. aureus (increase in extracellular AK activity)
[10] = planktonic K. pneumoniae, cutoff for positive-scoring molecules 3-fold increase, read-out: AK-based Prestwick Library Screening Results, K. pneumoniae (increase in extracellular AK activity)
[11] = planktonic A. baumannii, cutoff for positive-scoring molecules 3-fold increase, read-out: AK-based Prestwick Library Screening Results, A. baumannii (increase in extracellular AK activity)
[12] = planktonic P. aeruginosa, cutoff for positive-scoring molecules 3-fold increase, read-out: AK-based Prestwick Library Screening Results, P. aeruginosa (increase in extracellular AK activity)
[13] = planktonic E. cloacae, cutoff for positive-scoring molecules 3-fold increase, read-out: AK-based Prestwick Library Screening Results, E. cloacae (increase in extracellular AK activity)
[14] = planktonic E. coli, cutoff for positive-scoring molecules 3-fold increase, read-out: AK-based Prestwick Library Screening Results, E. coli (increase in extracellular AK activity)
[15] = planktonic E. faecium, 384-well, cutoff for positive-scoring molecules 3-fold increase, read-out: AK-based Prestwick Library Screening Results: E. faecium (increase in extracellular AK activity)
[16] = planktonic S. aureus, 384-well, cutoff for positive-scoring molecules 3-fold increase, read-out: AK-based Prestwick Library Screening Results: S. aureus (increase in extracellular AK activity)
[17] = planktonic K. pneumoniae, 384-well, cutoff for positive-scoring molecules 3-fold increase, read-out: AK-based Prestwick Library Screening Results: K. pneumoniae (increase in extracellular AK activity)
[18] = planktonic A. baumannii, 384-well, cutoff for positive-scoring molecules 3-fold increase, read-out: AK-based Prestwick Library Screening Results: A. baumannii (increase in extracellular AK activity)
[19] = planktonic P. aeruginosa, 384-well, cutoff for positive-scoring molecules 3-fold increase, read-out: AK-based Prestwick Library Screening Results: P. aeruginosa (increase in extracellular AK activity)
[20] = planktonic E. cloacae, 384-well, cutoff for positive-scoring molecules 3-fold increase, read-out: AK-based Prestwick Library Screening Results: E. cloacae (increase in extracellular AK activity)
[21] = planktonic E. coli, 384-well, cutoff for positive-scoring molecules 3-fold increase, read-out: AK-based Prestwick Library Screening Results: E. coli (increase in extracellular AK activity)
[22] = cutoff for positive-scoring molecules 3-fold increase, read-out: AK-based Prestwick Library Screening Results, E. faecium (fold increase in extracellular AK activity)
[23] = cutoff for positive-scoring molecules 3-fold increase, read-out: AK-based Prestwick Library Screening Results, S. aureus (fold increase in extracellular AK activity)
[24] = cutoff for positive-scoring molecules 3-fold increase, read-out: AK-based Prestwick Library Screening Results, K. pneumoniae (fold increase in extracellular AK activity)
[25] = cutoff for positive-scoring molecules 3-fold increase, read-out: AK-based Prestwick Library Screening Results, A. baumannii (fold increase in extracellular AK activity)
[26] = cutoff for positive-scoring molecules 3-fold increase, read-out: AK-based Prestwick Library Screening Results, P. aeruginosa (fold increase in extracellular AK activity)
[27] = cutoff for positive-scoring molecules 3-fold increase, read-out: AK-based Prestwick Library Screening Results, E. cloacae (fold increase in extracellular AK activity)
[28] = cutoff for positive-scoring molecules 3-fold increase, read-out: AK-based Prestwick Library Screening Results, E. coli (fold increase in extracellular AK activity)

Structure (SMILES): CNCCCN1c2ccccc2CCc2ccccc21 [Desipramine hydrochloride]
- fold induction at 50 µM [1, 8]: 0.8
- fold induction at 50 µM [2, 9]: 0.7
- fold induction at 50 µM [3, 10]: 0.7
- fold induction at 50 µM [4, 11]: 0.7
- fold induction at 50 µM [5, 12]: 0.9
- fold induction at 50 µM [6, 13]: 0.8
- fold induction at 50 µM [7, 14]: 0.9

Structure (SMILES): CC(=O)OCC(=O)[C@@]1(O)[C@H](C)C[C@H]2[C@@H]3CCC4=CC(=O)C=C[C@]4(C)[C@@]3(F)[C@@H](O)C[C@@]21C [Dexamethasone acetate]
- fold induction at 50 µM [1, 15]: 1.2
- fold induction at 50 µM [2, 16]: 1.2
- fold induction at 50 µM [3, 17]: 1.1
- fold induction at 50 µM [4, 18]: 1.1
- fold induction at 50 µM [5, 19]: 1
- fold induction at 50 µM [6, 20]: 1.2
- fold induction at 50 µM [7, 21]: 1.4

Structure (SMILES): CC1=NS(=O)(=O)c2cc(Cl)ccc2N1 [Diazoxide]
- fold induction at 50 µM ([1]; 384-well format, cutoff for positive-scoring molecules 3-fold increase, read-out: AK-based Prestwick Library Screening Results, E. faecium (increase in extracellular AK activity)): 0.9
- fold induction at 50 µM ([2]; 384-well format, cutoff for positive-scoring molecules 3-fold increase, read-out: AK-based Prestwick Library Screening Results, S. aureus (increase in extracellular AK activity)): 0.5
- fold induction at 50 µM ([3]; 384-well format, cutoff for positive-scoring molecules 3-fold increase, read-out: AK-based Prestwick Library Screening Results, K. pneumoniae (increase in extracellular AK activity)): 0.4
- fold induction at 50 µM ([4]; 384-well format, cutoff for positive-scoring molecules 3-fold increase, read-out: AK-based Prestwick Library Screening Results, A. baumannii (increase in extracellular AK activity)): 0.4
- fold induction at 50 µM ([5]; 384-well format, cutoff for positive-scoring molecules 3-fold increase, read-out: AK-based Prestwick Library Screening Results, P. aeruginosa (increase in extracellular AK activity)): 0.4
- fold induction at 50 µM ([6]; 384-well format, cutoff for positive-scoring molecules 3-fold increase, read-out: AK-based Prestwick Library Screening Results, E. cloacae (increase in extracellular AK activity)): 0.4
- fold induction at 50 µM ([7]; 384-well format, cutoff for positive-scoring molecules 3-fold increase, read-out: AK-based Prestwick Library Screening Results, E. coli (increase in extracellular AK activity)): 0.5

Structure (SMILES): CCCCOc1cc(C(=O)NCCN(CC)CC)c2ccccc2n1 [Dibucaine]
- fold induction at 50 µM [1, 15]: 0.9
- fold induction at 50 µM [2, 16]: 1.3
- fold induction at 50 µM [3, 17]: 1.1
- fold induction at 50 µM [4, 18]: 1.3
- fold induction at 50 µM [5, 19]: 1.1
- fold induction at 50 µM [6, 20]: 1.7
- fold induction at 50 µM [7, 21]: 1.3

Structure (SMILES): NS(=O)(=O)c1cc(Cl)c(Cl)c(S(N)(=O)=O)c1 [Dichlorphenamide]
- fold induction at 50 µM ([1]; planktonic, cutoff for positive-scoring molecules 3-fold increase, read-out: AK-based Prestwick Library Screening Results, E. faecium (fold increase in extracellular AK activity)): 1.1
- fold induction at 50 µM ([2]; planktonic, cutoff for positive-scoring molecules 3-fold increase, read-out: AK-based Prestwick Library Screening Results, S. aureus (fold increase in extracellular AK activity)): 0.5
- fold induction at 50 µM ([3]; planktonic, cutoff for positive-scoring molecules 3-fold increase, read-out: AK-based Prestwick Library Screening Results, K. pneumoniae (fold increase in extracellular AK activity)): 0.5
- fold induction at 50 µM ([4]; planktonic, cutoff for positive-scoring molecules 3-fold increase, read-out: AK-based Prestwick Library Screening Results, A. baumannii (fold increase in extracellular AK activity)): 0.5
- fold induction at 50 µM ([5]; planktonic, cutoff for positive-scoring molecules 3-fold increase, read-out: AK-based Prestwick Library Screening Results, P. aeruginosa (fold increase in extracellular AK activity)): 0.5
- fold induction at 50 µM ([6]; planktonic, cutoff for positive-scoring molecules 3-fold increase, read-out: AK-based Prestwick Library Screening Results, E. cloacae (fold increase in extracellular AK activity)): 0.5
- fold induction at 50 µM ([7]; planktonic, cutoff for positive-scoring molecules 3-fold increase, read-out: AK-based Prestwick Library Screening Results, E. coli (fold increase in extracellular AK activity)): 0.6

Structure (SMILES): O=C(O)Cc1ccccc1Nc1c(Cl)cccc1Cl [Diclofenac sodium]
- fold induction at 50 µM [1, 8]: 0.9
- fold induction at 50 µM [2, 9]: 0.8
- fold induction at 50 µM [3, 10]: 0.7
- fold induction at 50 µM [4, 11]: 0.8
- fold induction at 50 µM [5, 12]: 0.9
- fold induction at 50 µM [6, 13]: 1.2
- fold induction at 50 µM [7, 14]: 0.9

Structure (SMILES): Cc1onc(-c2c(Cl)cccc2Cl)c1C(=O)N[C@@H]1C(=O)N2[C@@H]1SC(C)(C)[C@@H]2C(=O)O [Dicloxacillin sodium salt]
- fold induction at 50 µM ([1]; planktonic, cutoff for positive 3-fold increase, read-out: AK-based Prestwick Library Screening Results, E. faecium (fold increase in extracellular AK activity)): 1
- fold induction at 50 µM ([2]; planktonic, cutoff for positive 3-fold increase, read-out: AK-based Prestwick Library Screening Results, S. aureus (fold increase in extracellular AK activity)): 7.1
- fold induction at 50 µM ([3]; planktonic, cutoff for positive 3-fold increase, read-out: AK-based Prestwick Library Screening Results, K. pneumoniae (fold increase in extracellular AK activity)): 0.9
- fold induction at 50 µM ([4]; planktonic, cutoff for positive 3-fold increase, read-out: AK-based Prestwick Library Screening Results, A. baumannii (fold increase in extracellular AK activity)): 1.5
- fold induction at 50 µM ([5]; planktonic, cutoff for positive 3-fold increase, read-out: AK-based Prestwick Library Screening Results, P. aeruginosa (fold increase in extracellular AK activity)): 1.4
- fold induction at 50 µM ([6]; planktonic, cutoff for positive 3-fold increase, read-out: AK-based Prestwick Library Screening Results, E. cloacae (fold increase in extracellular AK activity)): 1.2
- fold induction at 50 µM ([7]; planktonic, cutoff for positive 3-fold increase, read-out: AK-based Prestwick Library Screening Results, E. coli (fold increase in extracellular AK activity)): 1.2

Structure (SMILES): O=c1oc2ccccc2c(O)c1Cc1c(O)c2ccccc2oc1=O [Dicumarol]
- fold induction at 50 µM [1, 22]: 1.3
- fold induction at 50 µM [2, 23]: 1.3
- fold induction at 50 µM [3, 24]: 1.1
- fold induction at 50 µM [4, 25]: 1.3
- fold induction at 50 µM [5, 26]: 1.2
- fold induction at 50 µM [6, 27]: 1.5
- fold induction at 50 µM [7, 28]: 1.1

Structure (SMILES): O=c1[nH]cnc2c1ncn2[C@H]1CC[C@@H](CO)O1 [Didanosine]
- fold induction at 50 µM [1, 15]: 0.9
- fold induction at 50 µM [2, 16]: 1.2
- fold induction at 50 µM [3, 17]: 0.9
- fold induction at 50 µM [4, 18]: 1.5
- fold induction at 50 µM [5, 19]: 1
- fold induction at 50 µM [6, 20]: 4.2
- fold induction at 50 µM ([7]; planktonic E. coli, 384-well, […], read-out: AK-based Prestwick Library Screening Results: E. coli (increase in extracellular AK activity)): 4.7

Structure (SMILES): C/C=C(/C(=C/C)c1ccc(O)cc1)c1ccc(O)cc1 [Dienestrol]
- fold induction at 50 µM [1, 22]: 1.3
- fold induction at 50 µM [2, 23]: 0.4
- fold induction at 50 µM [3, 24]: 0.9
- fold induction at 50 µM [4, 25]: 3.2
- fold induction at 50 µM [5, 26]: 1.1
- fold induction at 50 µM [6, 27]: 21.9
- fold induction at 50 µM [7, 28]: 1.1

Structure (SMILES): CCN(CC)C(=O)N1CCN(C)CC1 [Diethylcarbamazine citrate]
- fold induction at 50 µM [1, 15]: 1.2
- fold induction at 50 µM [2, 16]: 1.1
- fold induction at 50 µM [3, 17]: 0.9
- fold induction at 50 µM [4, 18]: 1.1
- fold induction at 50 µM [5, 19]: 1.1
- fold induction at 50 µM [6, 20]: 1.7
- fold induction at 50 µM [7, 21]: 1.3

Source: patent publication US10004701B2, “Methods and compositions for treating infection” (UNIVERSITY OF ROCHESTER, priority 2012, dated 2018)
